Reference: paper PMC5035034, “Carbohydrate-Binding Non-Peptidic Pradimicins for the Treatment of Acute Sleeping Sickness in Murine Models” (PLoS Pathogens, 2016)

Molecular target: T1, VSG221 (variant surface glycoprotein 221, MITat 1.2) (Trypanosoma brucei, UniProt P26332)
T1 construct: soluble form VSG (sVSG) purified from parental bloodstream forms, N-glycosylated (Asn263, Asn428)
Test: SPR (Biacore T200) on immobilized VSG221, […]
Format: binding

Compound: CN[C@@H]1[C@H](O[C@@H]2OC[C@@H](O)[C@H](O)[C@H]2O)[C@@H](O)[C@H](O[C@H]2c3cc(C)c(C(=O)N[C@H](C)C(=O)O)c(O)c3-c3c(cc4c(c3O)C(=O)c3cc(OC)cc(O)c3C4=O)[C@@H]2O)O[C@@H]1C [PRM-A, pradimicin A]
- SPR (Biacore T200) on immobilized VSG221, 1.56 to 50 uM: using the high-density parental Tb BSF VSG221 sensorchip, concentration-dependent binding of PRM-A could be observed
